Data as given in patent US4758555A, “Method for treating convulsions and epilepsy with organic copper compounds” (priority 1986, dated 1988).
“Also recorded” adds a separate entry of the source.

Legend:
[1] = Anticonvulsant activity, both or unspecified seizure models; assay type: in vivo, male Carworth Farms #1 mice or Sprague-Dawley rats
[2] = Maximal Electroshock Seizure Test; assay type: in vivo, male Carworth Farms #1 mice or Sprague-Dawley rats; conditions: for Anticonvulsant activity, Maximal Electroshock: Table VI; for Lowest effective dose, MES (Phase I): Table X; for Lowest active dose, MES (Phase I): Table V
[3] = Rotating rod neurotoxicity; conditions: dose and time given in the source
[4] = 50, 100 and 300 mg/kg at 0.75, 1.5 and 3 hours post subcutaneous injection at a site different from Metrazol; cited from earlier work
[5] = Subcutaneous Pentylenetetrazol (Metrazol) Seizure Threshold Test; assay type: in vivo, male Carworth Farms #1 mice or Sprague-Dawley rats; conditions: for Protection against Metrazol-induced seizures (in words): running text; for Anticonvulsant activity, Metrazol: Table VI; for Lowest effective dose, Metrazol (Phase I): Table X; for Lowest active dose, Metrazol (Phase I): Table V
[6] = Lethality / acute toxicity (LD50 in 24 hours); conditions: for Lethality (in words): dose and time given in the source; for Doses causing death in some of the test groups: in vivo
Source text: Test compounds were either dissolved in 0.9% saline, or suspended in either 30% polyethylene glycol 400 in 0.9% saline or 0.2% suspending agent like polyoxyethylene glycol or Tween 80 in 0.9% saline prior to injection into male Carworth Farms #1 mice or Sprague-Dawley rats.
In Phase I identification of anticonvulsant activity, test compounds were given intraperitoneally (IP) at 30, 100, 300 and, in some cases, 600 milligrams per kilogram (mg/kg) of body weight and protection against Maximal Electroshock and/or Metrazol-induced seizures was determined 30 minutes, 4 hours, or later. […] Subsequently the routine protocol was modified and certain of the test compounds (see Tables, infra) re-evaluated following subcutaneous (SC) injection at periods of up to 8 hours post injection.
All statistics were obtained by probit analyses.

[7] = Sleep time / hypnosis or sedation; assay type: in vivo; conditions: Table IX; intraperitoneal; 65 mg/kg; 5 animals
Procedure: In Phase I identification of anticonvulsant activity, test compounds were given intraperitoneally (IP) at 30, 100, 300 and, in some cases, 600 milligrams per kilogram (mg/kg) of body weight and protection against Maximal Electroshock and/or Metrazol-induced seizures was determined 30 minutes, 4 hours, or later. […] Subsequently the routine protocol was modified and certain of the test compounds (see Tables, infra) re-evaluated following subcutaneous (SC) injection at periods of up to 8 hours post injection. Subcutaneous administration can be helpful in determining whether or not hypnotic activity can be distinguished from anticonvulsant activity based upon the decreased rate of absorption associated with this route of administration as opposed to the more rapid rate of absorption associated with IP administration.

[8] = SC at site different from injection of Metrazol

For `C1CCc2nnnn2CC1.[Cl-].[Cl-].[Cu+2]` [Cu(II)(Metrazol)Cl2], the “Anticonvulsant activity (in words)” value ([1]; running text) was “some anticonvulsant activity when injected at a site different from the site of Metrazol injection”, the “Anticonvulsant activity, Maximal Electroshock” value ([2]; IP) was “I” and the “Anticonvulsant activity, Maximal Electroshock” value [2, 8] was “I”. The “Rotating rod toxicity (in words)” value [3] was “no rotating rod toxicity at doses up to 600 mg/kg”.
For `[Cl][Cu][Cl]` [copper chloride], the “Anticonvulsant activity reported previously (in words)” value [4] is listed as “no anticonvulsant activity”.
With `O=C(O)c1ccccc1[O-].O=C(O)c1ccccc1[O-].[Cu+2]` [Cu(II)(salicylate)2] the “Anticonvulsant activity (in words)” value ([1]; running text) was “effective at the higher doses studied and for prolonged periods of up to 4 hours”, the “ED50 for protection against Maximal Electroshock-induced seizures” value ([2]; Phase II, SC) was 360 mg/kg and the “Time of peak effect, inhibition of Maximal Electroshock induced seizures” value ([2]; SC, 600 mg/kg, Phase II) was 7 h. For the same compound, the “Inhibition of Maximal Electroshock-induced seizure” value ([2]; SC, 600 mg/kg, at 24 hours, Phase II) was 37%, the “Anticonvulsant activity, Maximal Electroshock (Phase I)” value ([2]; Table II, SC) was “I” and the “Protection against Maximal Electroshock-induced seizures (in words)” value ([2]; running text) was “onset of protection against Maximal Electroshock-induced seizure was slower but the activity was prolonged over the 24-hour period; also recorded: inactive in protecting against the Maximal Electroshock-induced seizure in routine Phase I studies; also recorded: active in protecting against this seizure when higher doses were used and the activity was evaluated at different time periods”. The “ED50 for protection against Metrazol-induced seizures” value ([5]; Phase II, SC) was 38 mg/kg, the “Time of peak effect, inhibition of Metrazol-induced seizures” value ([5]; SC, 100 mg/kg, Phase II) was 2 h and the “Protection against Metrazol-induced seizures (in words)” value [5] was “rapid onset of protection against the Metrazol-induced seizure which decreases over the extrapolated period of 7 hours”. For the same compound, the LD50 ([6]; 24-hour, Phase II) was 441 mg/kg.
For Copper acetate [Cu(II)2 (acetate)4], the “Anticonvulsant activity (in words)” value ([1]; running text) was “active when injected at the same site as the site of Metrazol injection; also recorded: lack of anticonvulsant activity”, the “Anticonvulsant activity (in words)” value ([1]; running text, listed as copper acetate) was “inactive when administered orally” and the “Anticonvulsant activity, Maximal Electroshock” value ([2]; IP) was “I”. For the same compound, the “Anticonvulsant activity, Maximal Electroshock” value ([2]; SC, same injection site used for injection of Metrazol) was “I”, the “Anticonvulsant activity, Maximal Electroshock” value ([2]; intragastric) was “I” and the “Anticonvulsant activity, Metrazol” value [5, 8] was “I”. The “Anticonvulsant activity, Metrazol” value ([5]; intragastric) was “I”, the “Lowest dose with activity against Metrazol-induced seizures” value ([5]; intraperitoneal (copper acetate: site different from Metrazol)) was 5 mg/kg and the “Protection against Metrazol-induced seizures (in words)” value [5] was “effective in inhibiting Metrazol-induced seizures”. The “Anticonvulsant activity reported previously (in words)” value [4] was “no anticonvulsant activity”.
For `CC(=O)Nc1ccc(C(=O)[O-])c(O)c1.CC(=O)Nc1ccc(C(=O)[O-])c(O)c1.[Cu+2]` [Cu(II)(4-acetylaminosalicylate)2], the “Anticonvulsant activity (in words)” value ([1]; running text) was “effective in preventing seizures”, the “Anticonvulsant activity, Metrazol (Phase I)” value ([5]; Table II, IP) was “I” and the “Lethality (in words)” value [6] was “Lethal at 100 mg/kg at 4 hours”.
With `CCC1(CCC(C)C)C(=O)NC(=O)NC1=O` [Na amobarbital, sodium (Na) amobarbital, reference compound] the “Protection Against Seizure” value ([2]; Table IX, maximal electroshock, intraperitoneal, 65 mg/kg, 5 animals) was 0 Percent protected and the “Average Sleep Time” value [7] was 0 min.
For Cu(II)2 (phenylacetate)4, the “Rotating rod toxicity (in words)” value [3] was “Rotating rod toxicity at 300 mg/kg” and the “Protection against Metrazol-induced seizures (in words)” value [5] was “effective in protecting against Metrazol-induced seizures”.
With Cu(II) Salicylidene-L-valinate the “Anticonvulsant activity, Maximal Electroshock (Phase I)” value ([2]; Table IV, IP) was “I”, the “Anticonvulsant activity, Maximal Electroshock (Phase I)” value ([2]; Table IV, SC) was “I” and the “Lethality (in words)” value [6] was “Lethal at higher doses”. For the same compound, the “Lethality (in words)” value ([6]; listed as salicylidene-L-valinate complex) was “caused lethality at higher doses”.
In the case of `O.O=C1Nc2ccc(Cl)cc2C(c2ccccc2Cl)=NC1O.O=C1Nc2ccc(Cl)cc2C(c2ccccc2Cl)=NC1O.[Cl-].[Cl-].[Cu+2]` (centres unmarked) [Cu(II)(Lorazepam)2 (Cl)2 H2 O], the “Onset and duration of anticonvulsant action (in words)” value [1] was “rapid onset of action and prolonged duration following intraperitoneal and subcutaneous administration”, the “Anticonvulsant activity (in words)” value ([1]; running text) was “appears to be quite active” and the “Lowest effective dose, MES (Phase I)” value ([2]; IP, challenge time 30 min) was 20 milligrams per kilogram of bod. The “Lowest effective dose, MES (Phase I)” value ([2]; IP, challenge time 4 hrs) was 30 milligrams per kilogram of bod, the “Lowest effective dose, MES (Phase I)” value ([2]; SC, challenge time 30 min) was 20 milligrams per kilogram of bod and the “Lowest effective dose, MES (Phase I)” value ([2]; SC, challenge time 4 hrs) was 100 milligrams per kilogram of bod. The “Lowest effective dose, Metrazol (Phase I)” value ([5]; IP, challenge time 30 min) was “I”, the “Lowest effective dose, Metrazol (Phase I)” value ([5]; IP, challenge time 4 hrs) was “I” and the “Lowest effective dose, Metrazol (Phase I)” value ([5]; SC, challenge time 30 min) was “I”. For the same compound, the “Lowest effective dose, Metrazol (Phase I)” value ([5]; SC, challenge time 4 hrs) was “I”.
In the case of `O=C1Nc2ccc(Cl)cc2C(c2ccccc2Cl)=NC1O` (centres unmarked) [Lorazepam, reference compound], the “Time of peak activity (Phase II)” value ([1]; Table X, IP, challenge time) was 1 h, the ED50 ([2]; Mus musculus, ip, read-out: ED50 for inhibition of seizures, MES (Phase II)) was 24 mg/kg and the ED50 ([5]; Mus musculus, ip, read-out: ED50 for inhibition of seizures, Metrazol (Phase II)) was 0.02 mg/kg.
In the case of `CC(=O)CC(C)=NCCN=C(C)CC(C)=O.[Cu]` [Cu(II) Bisacetylacetonethyleneimine], the “Anticonvulsant activity (in words)” value ([1]; running text) was “effective in preventing both Maximal Electroshock and Metrazol-induced seizures” and the “Rotating rod toxicity (in words)” value ([3]; listed as bisacetylacetonethyleneimine complex) was “rotating rod toxicity, which may also have been due to hypnotic activity, was found at the higher doses studied”.
With `Nc1ccc(C(=O)[O-])c(O)c1.Nc1ccc(C(=O)[O-])c(O)c1.[Cu+2]` [Cu(II)(4-aminosalicylate)2] the “Anticonvulsant activity (in words)” value ([1]; running text) was “effective in preventing seizures”, the “Anticonvulsant activity, Maximal Electroshock (Phase I)” value ([2]; Table II, IP) was “I” and the “Doses causing death in some of the test groups” value [6] was “higher than 300 mg/kg”. For the same compound, the “Lethality (in words)” value [6] was “Lethal at higher doses”.
For `O=C([O-])c1ccc([N+](=O)[O-])cc1O.O=C([O-])c1ccc([N+](=O)[O-])cc1O.[Cu+2]` [Cu(II)(4-nitrosalicylate)2], the “Anticonvulsant activity (in words)” value ([1]; running text) was “effective in preventing seizures”, the “Anticonvulsant activity, Maximal Electroshock (Phase I)” value ([2]; Table II, IP) was “I” and the “Doses causing death in some of the test groups” value [6] was “higher than 100 mg/kg”.
In the case of `CN1C(=O)CN=C(c2ccccc2)c2cc(Cl)ccc21.CN1C(=O)CN=C(c2ccccc2)c2cc(Cl)ccc21.[Cl-].[Cl-].[Cu+2]` [Cu(II)(Diazepam)2 (Cl)2], the “Onset and duration of anticonvulsant action (in words)” value [1] was “rapid onset of action and prolonged duration following intraperitoneal administration”, the “Lowest effective dose, MES (Phase I)” value ([2]; IP, challenge time 30 min) was 30 milligrams per kilogram of bod and the “Lowest effective dose, MES (Phase I)” value ([2]; IP, challenge time 4 hrs) was 30 milligrams per kilogram of bod. The “Lowest effective dose, Metrazol (Phase I)” value ([5]; IP, challenge time 30 min) was 30 milligrams per kilogram of bod and the “Lowest effective dose, Metrazol (Phase I)” value ([5]; IP, challenge time 4 hrs) was 30 milligrams per kilogram of bod.
For “Cu(II)α-methyl-α-phenylsuccinimide(H2 O)0.75”, the “Anticonvulsant activity (in words)” value ([1]; running text) was “effective in preventing both types of seizure with rapid onsets of action and prolonged durations of action following subcutaneous and intraperitoneal administration”, the “Lowest effective dose, MES (Phase I)” value ([2]; IP, challenge time 30 min) was 100 milligrams per kilogram of bod and the “Lowest effective dose, MES (Phase I)” value ([2]; IP, challenge time 4 hrs) was “I”. For the same compound, the “Lowest effective dose, MES (Phase I)” value ([2]; SC, challenge time 30 min) was 30 milligrams per kilogram of bod, the “Lowest effective dose, MES (Phase I)” value ([2]; SC, challenge time 4 hrs) was 100 milligrams per kilogram of bod and the “Lowest effective dose, Metrazol (Phase I)” value ([5]; IP, challenge time 30 min) was 100 milligrams per kilogram of bod. For the same compound, the “Lowest effective dose, Metrazol (Phase I)” value ([5]; IP, challenge time 4 hrs) was 100 milligrams per kilogram of bod, the “Lowest effective dose, Metrazol (Phase I)” value ([5]; SC, challenge time 30 min) was 30 milligrams per kilogram of bod and the “Lowest effective dose, Metrazol (Phase I)” value ([5]; SC, challenge time 4 hrs) was 600 milligrams per kilogram of bod.
In the case of `Cc1ncc(CO)c(C=N[C@@H](Cc2c[nH]c3ccccc23)C(=O)[O-])c1[O-].O.O.[Cu+2]` [Cu(II)Pyridoxylidene-L-tryptophanate(H2 O)2], the “Anticonvulsant activity (in words)” value ([1]; running text) was “more effective but only protected against the Metrazol-induced seizure”, the “Lowest active dose, MES (Phase I)” value ([2]; IP, challenge time 30 min) was “I” and the “Lowest active dose, MES (Phase I)” value ([2]; IP, challenge time 4 hrs) was “I”. For the same compound, the “Lowest active dose, Metrazol (Phase I)” value ([5]; IP, challenge time 30 min) was 30 mg/kg of body weight and the “Lowest active dose, Metrazol (Phase I)” value ([5]; IP, challenge time 4 hrs) was 30 mg/kg of body weight.
With `CC[C@H](C)[C@H](N)C(=O)[O-].CC[C@H](C)[C@H](N)C(=O)[O-].[Cu+2]` [Cu(II)(L-isoleucinate)2] the “Anticonvulsant activity (in words)” value ([1]; listed as isoleucine complex) was “inhibited both the Maximal Electroshock and Metrazol-induced seizures in these Phase I tests”, the “Anticonvulsant activity (in words)” value ([1]; running text) was “found to have anticonvulsant activity” and the “Lethality (in words)” value [6] was “Lethal at higher doses”.
